We go through ten compounds from PubChem BioAssay AID1259407 (Chemical Carcinogenesis Research Information System (CCRIS), 2018).

The test system of this series is CCRIS mutagenicity, Ames/micronucleus/aberration tests. Nature of the series: CCRIS mutagenicity studies.
[1] abbreviates: Test System: AMES SALMONELLA TYPHIMURIUM, Strain/Indicator: TA98, Metabolic Activation: NONE, Method: PREINCUBATION
[2] abbreviates: Test System: AMES SALMONELLA TYPHIMURIUM, Strain/Indicator: TA98, Metabolic Activation: NONE, Method: STANDARD PLATE.
[3] abbreviates: Test System: AMES SALMONELLA TYPHIMURIUM, Strain/Indicator: TA100, Metabolic Activation: NONE, Method: PREINCUBATION
The mark [4] stands for this setting: Test System: AMES SALMONELLA TYPHIMURIUM, Strain/Indicator: TA100, Metabolic Activation: NONE, Method: STANDARD PLATE.

Active and inactive are the calls of the source. The rule behind the calls is not given here.

Regarding `Clc1ccccc1Cl`, the mutagenic call (End Point: IN VITRO CHROMOSOMAL ABERRATIONS, Test System: CHO-LB CELLS, Metabolic Activation: NONE) is “inactive; negative”; the mutagenic call (End Point: IN VITRO CHROMOSOMAL ABERRATIONS, Test System: CHO-LB CELLS, Metabolic Activation: RAT, LIVER, S-9, AROCLOR 1254) was “inactive; negative”; the mutagenic call (Test System: AMES SALMONELLA TYPHIMURIUM, Strain/Indicator: TA98, Metabolic Activation: HAMSTER, LIVER, S-9, AROCLOR 1254, Method: PREINCUBATION) is “inactive; negative”; the mutagenic call under setting [1] is “inactive; negative”; the mutagenic call under setting [2] was “inactive; negative”; the mutagenic call (Test System: AMES SALMONELLA TYPHIMURIUM, Strain/Indicator: TA98, Metabolic Activation: RAT, LIVER, S-9, AROCLOR 1254, Method: PREINCUBATION) is “inactive; negative”. Moreover, the mutagenic call is, setting by setting: (Test System: AMES SALMONELLA TYPHIMURIUM, Strain/Indicator: TA98, Metabolic Activation: RAT, LIVER, S-9, AROCLOR, Method: STANDARD PLATE) “inactive; negative”; (Test System: AMES SALMONELLA TYPHIMURIUM, Strain/Indicator: TA100, Metabolic Activation: HAMSTER, LIVER, S-9, AROCLOR 1254, Method: PREINCUBATION) “inactive; negative”; under setting [3], “inactive; negative”; under setting [4], “inactive; negative”; (Test System: AMES SALMONELLA TYPHIMURIUM, Strain/Indicator: TA100, Metabolic Activation: RAT, LIVER, S-9, AROCLOR 1254, Method: PREINCUBATION) “inactive; negative”; (Test System: AMES SALMONELLA TYPHIMURIUM, Strain/Indicator: TA100, Metabolic Activation: RAT, LIVER, S-9, AROCLOR, Method: STANDARD PLATE) “inactive; negative”. In addition, the mutagenic call was “inactive; negative” (Test System: AMES SALMONELLA TYPHIMURIUM, Strain/Indicator: TA1535, Metabolic Activation: HAMSTER, LIVER, S-9, AROCLOR 1254, Method: PREINCUBATION); “inactive; negative” (Test System: AMES SALMONELLA TYPHIMURIUM, Strain/Indicator: TA1535, Metabolic Activation: NONE, Method: PREINCUBATION); “inactive; negative” (Test System: AMES SALMONELLA TYPHIMURIUM, Strain/Indicator: TA1535, Metabolic Activation: RAT, LIVER, S-9, AROCLOR 1254, Method: PREINCUBATION); “inactive; negative” (Test System: AMES SALMONELLA TYPHIMURIUM, Strain/Indicator: TA1537, Metabolic Activation: HAMSTER, LIVER, S-9, AROCLOR 1254, Method: PREINCUBATION); “inactive; negative” (Test System: AMES SALMONELLA TYPHIMURIUM, Strain/Indicator: TA1537, Metabolic Activation: NONE, Method: PREINCUBATION); “inactive; negative” (Test System: AMES SALMONELLA TYPHIMURIUM, Strain/Indicator: TA1537, Metabolic Activation: RAT, LIVER, S-9, AROCLOR 1254, Method: PREINCUBATION). Also, the mutagenic call was “inactive; negative” (Test System: AMES SALMONELLA TYPHIMURIUM, Strain/Indicator: UTH8413, Metabolic Activation: NONE, Method: STANDARD PLATE); “inactive; negative” (Test System: AMES SALMONELLA TYPHIMURIUM, Strain/Indicator: UTH8413, Metabolic Activation: RAT, LIVER, S-9, AROCLOR, Method: STANDARD PLATE); “inactive; negative” (Test System: AMES SALMONELLA TYPHIMURIUM, Strain/Indicator: UTH8414, Metabolic Activation: NONE, Method: STANDARD PLATE); “inactive; negative” (Test System: AMES SALMONELLA TYPHIMURIUM, Strain/Indicator: UTH8414, Metabolic Activation: RAT, LIVER, S-9, AROCLOR, Method: STANDARD PLATE).
For `[N-]=[N+]=NCCC(N)C(=O)O` (stereo not drawn), the mutagenic call (Test System: AMES SALMONELLA TYPHIMURIUM, Strain/Indicator: TA1530, Metabolic Activation: NONE, Method: STANDARD PLATE) was “active; positive”.
For `C[n+]1cccc2c1C=C[C@H]1O[C@@H]21`, the mutagenic call reads like this: under setting [4], “inactive; negative”; (Test System: AMES SALMONELLA TYPHIMURIUM, Strain/Indicator: TA100, Metabolic Activation: RAT, LIVER, S-9, AROCLOR 1254 (20%), Method: STANDARD PLATE) “active; positive”.
With `Nc1ccc(N=Nc2ccc(N=Nc3c(S(=O)(=O)O)cc4c(c3N)C(=O)/C(=N\Nc3ccc(N=Nc5ccc(N)cc5N)cc3)C(S(=O)(=O)O)=C4)cc2)c(N)c1`, the mutagenic call by setting is: (Test System: AMES SALMONELLA TYPHIMURIUM, Strain/Indicator: TA1538, Metabolic Activation: NONE, Method: STANDARD PLATE) “inactive; negative”; (Test System: AMES SALMONELLA TYPHIMURIUM, Strain/Indicator: TA1538, Metabolic Activation: RAT, LIVER, S-9, AROCLOR 1254, Method: STANDARD PLATE) “active; positive”.
As for `C=CC(Cl)CCl` (stereo not drawn), the mutagenic call by setting is: (Test System: AMES SALMONELLA TYPHIMURIUM, Strain/Indicator: TA102, Metabolic Activation: RAT LIVER S-9, PHENOBARBITAL AND 5,6-BENZOFLAVONE, Method: STANDARD PLATE) “inactive; negative”; (Test System: AMES SALMONELLA TYPHIMURIUM, Strain/Indicator: TA2638, Metabolic Activation: RAT LIVER S-9, PHENOBARBITAL AND 5,6-BENZOFLAVONE, Method: STANDARD PLATE) “inactive; negative”; (Test System: E. COLI, Strain/Indicator: WP2 (PKM101), Metabolic Activation: RAT LIVER S-9, PHENOBARBITAL AND 5,6-BENZOFLAVONE, Method: STANDARD PLATE) “inactive; negative”; (Test System: E. COLI, Strain/Indicator: WP2 UVRA (PKM101), Metabolic Activation: RAT LIVER S-9, PHENOBARBITAL AND 5,6-BENZOFLAVONE, Method: STANDARD PLATE) “inactive; negative”.
Regarding `Cc1c(N)nc(C(CC(N)=O)NCC(N)C(N)=O)nc1C(=O)NC(C(=O)NC(C)C(O)C(C)C(=O)NC(C(=O)NCCc1nc(-c2nc(C(=O)NCCC[S+](C)C)cs2)cs1)C(C)O)C(O[C@@H]1O[C@@H](CO)[C@@H](O)[C@H](O)[C@@H]1O[C@H]1O[C@H](CO)[C@@H](O)[C@H](OC(N)=O)[C@@H]1O)c1cnc[nH]1` (stereo partly drawn), the mutagenic call (End Point: IN VITRO MICRONUCLEUS, Test System: CHO CELLS, Metabolic Activation: RAT, LIVER, S-9, AROCLOR 1254) is “active; positive”; the mutagenic call (End Point: In vitro micronucleus, Test System: Human lymphocytes from 200 volunteers (128 women, 72 men), Metabolic Activation: None) was “inactive; positive for gstt1-null and xd polymorphisms and spontaneous and bleomycin-induc”; the mutagenic call under setting [1] was “inactive; negative”; the mutagenic call (Test System: AMES SALMONELLA TYPHIMURIUM, Strain/Indicator: TA98, Metabolic Activation: S-9, Method: PREINCUBATION) was “inactive; negative”; the mutagenic call under setting [3] was “inactive; negative”; the mutagenic call (Test System: AMES SALMONELLA TYPHIMURIUM, Strain/Indicator: TA100, Metabolic Activation: S-9, Method: PREINCUBATION) is “inactive; negative”. The mutagenic call is “active; positive” (Test System: AMES SALMONELLA TYPHIMURIUM, Strain/Indicator: TA102, Metabolic Activation: NONE, Method: STANDARD PLATE) and “inactive; negative” (Test System: AMES SALMONELLA TYPHIMURIUM, Strain/Indicator: TA2638A, Metabolic Activation: NONE, Method: STANDARD PLATE).
With `CCCOC(=O)NO`, the mutagenic call (Test System: E. COLI, Strain/Indicator: WP2 UVRA, Metabolic Activation: NONE, Method: FLUCTUATION TEST) is “active; positive”.
On to `O=C([O-])[O-].[Mn+2]`, for which the mutagenic call reads like this: (Test System: AMES SALMONELLA TYPHIMURIUM, Strain/Indicator: TA97, Metabolic Activation: NONE, Method: PREINCUBATION) “inactive; negative”; (Test System: AMES SALMONELLA TYPHIMURIUM, Strain/Indicator: TA97, Metabolic Activation: S-9, Method: PREINCUBATION) “inactive; negative”; (Test System: AMES SALMONELLA TYPHIMURIUM, Strain/Indicator: TA102, Metabolic Activation: NONE, Method: PREINCUBATION) “inactive; negative”; (Test System: AMES SALMONELLA TYPHIMURIUM, Strain/Indicator: TA102, Metabolic Activation: S-9, Method: PREINCUBATION) “inactive; negative”.
Regarding `O=[N+]([O-])c1cccc(-c2ccccc2)c1O`, the mutagenic call under setting [1] was “inactive; negative”.
Regarding `CC(=O)ON(C(C)=O)c1ccc(Sc2ccccc2)cc1`, the mutagenic call is, setting by setting: (Test System: AMES SALMONELLA TYPHIMURIUM, Strain/Indicator: TA98(1,8-DNP6), Metabolic Activation: NONE, Method: STANDARD PLATE) “active; positive”; under setting [2], “active; positive”; (Test System: AMES SALMONELLA TYPHIMURIUM, Strain/Indicator: TA98, Metabolic Activation: RAT, LIVER, S-9, AROCLOR 1254, Method: STANDARD PLATE) “active; positive”.
